Experimental data published in patent US8206722B2, “Somatostatin receptor antagonists and glucose control or hypoglycemia” (The Governing Council of the University of Toronto, priority 2007, dated 2012).

How the values were obtained:
[1] = target: SSTR-2 (Homo sapiens, UniProt P30874); details: antagonist at SSTR-2, cited from earlier work
[2] = tested on: non-diabetic rats; details: cited from earlier work
[3] = tested on: non-diabetic and STZ-diabetic rats; assay: Insulin-induced hypoglycemic glucose clamp with SSTR antagonist infusion in non-diabetic and STZ-diabetic rats; assay type: in vivo, rat
Procedure: FIG. 1 indicates levels of plasma glucose levels in four groups of rats during the 1-h SSTR antagonist/saline pretreatment and 3-h hypoglycemic clamp experiment. […] A similar glycemic profile is observed in FIG. 1B when another dose of insulin and SSTR antagonist (DC-41-33) were tested (5 U/kg and 3000 nmol/kg/h, respectively).
Non-diabetic and STZ-diabetic rats were injected with insulin (10 U/kg and 5 U/kg). These doses yielded reproducible responses of plasma glucose (FIG. 1). In diabetic rats, plasma glucose is elevated approximately 3- to 4-fold before hypoglycemia is induced. A subcutaneous injection of insulin was given immediately after the sample was taken at time 0 in all groups of rats to induce hypoglycemia. Plasma glucose levels dropped to the same target hypoglycemia (2.75±0.25 mM) in both non-diabetic and diabetic rats. […] This technique of glucose clamping is a well-established method in diabetes research which allows precise comparison between different groups at a specific glycemic level.
This technique is referred to as the “glucose clamp” and is achieved by intravenously infusing glucose whenever necessary.

[4] = tested on: isolated, perfused pancreas; details: perfused pancreas of non-diabetic rats; cited from earlier work
[5] = tested on: isolated islets; details: isolated islets and perifused isolated islets; reversed dose-dependently by added somatostatin; cited from earlier work

SSTR-2, sequence (P30874 whole entry, species assumed): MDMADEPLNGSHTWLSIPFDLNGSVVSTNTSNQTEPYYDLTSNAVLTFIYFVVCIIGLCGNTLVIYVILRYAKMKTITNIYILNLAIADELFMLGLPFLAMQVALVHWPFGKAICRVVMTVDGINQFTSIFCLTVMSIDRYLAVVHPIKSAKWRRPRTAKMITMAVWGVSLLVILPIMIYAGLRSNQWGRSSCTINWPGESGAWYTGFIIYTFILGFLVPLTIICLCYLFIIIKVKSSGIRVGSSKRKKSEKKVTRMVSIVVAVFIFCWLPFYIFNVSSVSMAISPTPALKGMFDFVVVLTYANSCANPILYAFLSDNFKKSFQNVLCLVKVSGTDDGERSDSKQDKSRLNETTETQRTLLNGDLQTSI

## H-Cpa-cyclo[Cys-Pal-DTrp-Lys-Ile-Cys]-Nal-NH2 [PRL-2915]
[1]
  Affinity (nM), Units pKi: 7.9 pKi

## H-Cpa-cyclo[DCys-Tyr-DTrp-Lys-Thr-Cys]-Nal-NH2 (XCYWKTCX; Cpa, Nal, D-residues, cyclic disulfide, C-terminal amide; Synthetic - PRL-2970)
[1]
  Affinity (nM), Units pKi: 7.6 pKi

## H-Fpa-cyclo[DCys-Pal-DTrp-Lys-Tle-Cys]-Nal-NH2 [DC-41-33]
[2]
  reversal of inhibition by GIP, GIP-(1-30)NH2 and GLP-1(7-36)NH2 of pentagastrin-stimulated gastric acid secretion: able to reverse the inhibitory effect
[3]; basal infusion before insulin, antagonist 1500 nmol/kg/h, FIG. 7
  plasma epinephrine levels during basal infusion of antagonist: did not affect plasma epinephrine levels
[3]; diabetic rats, regardless of hypoglycemia, insulin 5 U/kg, antagonist 3000 nmol/kg/h, FIG. 9
  growth hormone (GH) levels: did not affect GH levels
[3]; diabetic rats, insulin 5 U/kg, antagonist 3000 nmol/kg/h, FIG. 3
  peak glucagon response to hypoglycemia, increase: ~7 fold
[3]; diabetic rats, insulin 5 U/kg, antagonist 3000 nmol/kg/h, FIG. 5
  corticosterone response to hypoglycemia: fully normalized
[3]; diabetic rats, insulin 10 U/kg, antagonist 1500 nmol/kg/h, FIG. 2
  plasma glucagon before insulin and throughout hypoglycemia: glucagon was increased
[3]; diabetic rats, insulin 10 U/kg, antagonist 1500 nmol/kg/h, FIG. 7
  increase in plasma epinephrine levels (AUC) in response to hypoglycemia: 4 fold
[3]; insulin 10 U/kg, antagonist 1500 nmol/kg/h, FIG. 8
  plasma norepinephrine during basal infusion and insulin-induced hypoglycemia: no effect
[3]; non-diabetic and diabetic rats versus untreated controls, insulin 5 U/kg, antagonist 3000 nmol/kg/h, FIG. 6
  glucose infusion requirement during 3 h hypoglycemic clamp: less glucose infusion was necessary
[3]; non-diabetic and diabetic rats, insulin 10 U/kg, antagonist 1500 nmol/kg/h, FIG. 4
  corticosterone response to hypoglycemia: augmented to the same extent
[3]; non-diabetic and diabetic rats, insulin 10 U/kg, antagonist 1500 nmol/kg/h, FIG. 4, listed as SSTR2 antagonist
  corticosterone response to hypoglycemia: increases in the corticosterone response
[3]; non-diabetic rats, insulin 10 U/kg, antagonist 1500 nmol/kg/h, FIG. 2
  increase in plasma glucagon induced by insulin, with versus without antagonist: 3 fold
[4]
  glucagon secretion: enhances glucagon secretion
  insulin secretion: without affecting insulin secretion
[1]; Units column prints pIC50, read-out: Affinity (nM), Units pIC50 (converted)
  IC50: 27.4 nM
[5]
  glucagon secretion to an arginine stimulus: dose-dependently increases glucagon secretion

## HFIRWF [AC-178,335, Ac-His-Phe-Ile-Arg-Trp-Phe-NH2]
[1]
  Affinity (nM), Units pKi: 6.8 pKi
